Tests used:
S. pneumoniae strains [1] = assay: Streptonigrin bacterial survival assay; type: cell-based; conditions: 60 minutes incubation with 2.5 μg ml^-1 streptonigrin
Protocol: (§1) For bacterial survival streptonigrin assays, stocks of S. pneumoniae strains grown in Chelex-THY broth and stored at −70° C. were defrosted on ice, pelleted by centrifugation at 20000 g at 4° C. and resuspended in THY to which 2.5 μg ml^−1 of streptonigrin (Sigma) was then added. The reactions were incubated at 37° C., and aliquots of the reaction cultures taken at 40 and 60 minutes after adding streptonigrin were diluted and plated. Cfu at each time point were expressed as a percentage of the cfu prior to adding streptonigrin and the results presented as a ratio of the wild-type strain's results. To assess sensitivity to streptonigrin discs, S. pneumoniae strain stocks cultured in Chelex-THY broth were plated on RPMIm plates with or without 50 μM FeCl3 and 400 μM DIP supplementation at a density of several thousand colonies per plate. Antibiotic discs impregnated with 5 μg streptonigrin were placed onto the plates. After incubation for 20 hours at 37° C. in 5% CO2, the width of the zone of growth inhibition surrounding each disc was measured and confidence intervals for three separate results calculated.

S. pneumoniae strains [2] = assay: Streptonigrin disc sensitivity (zone of growth inhibition); type: cell-based
Protocol: as §1

S. pneumoniae = assay: Sit1D and Sit2A immunisation experiment with IP S. pneumoniae challenge; type: in vivo; conditions: BALBc mice, 10 ug protein IP three times, challenged IP with 10,000 S. pneumoniae cells
Protocol: BALBc were mice given 10 ug of protein (expressed in pQE30 expression vectors in E. coli and purified using the His-tag) via IP, on three occasions separated by 7-10 days, and then challenged 2 weeks after the last immunisation with 10,000 S. pneumoniae cells inoculated IP.
The other proteins were Sit1D, Sit2A, Sit1D combined with Sit2A, Sit1D combined with Pdb, and Sit2A combined with Pbd.

## COC1=C(N)C(=O)c2nc(-c3nc(C(=O)O)c(C)c(-c4ccc(OC)c(OC)c4O)c3N)ccc2C1=O [streptonigrin]
S. pneumoniae strains [1]; Sit1A- strain
  fold more cells surviving than wild type cells: Approximately 10 fold
S. pneumoniae strains [1]; Sit1A-/Sit2A- strain
  fold more cells surviving than wild type cells: ~1000 fold
S. pneumoniae strains [1]; Sit2A- strain
  fold more cells surviving than wild type cells: Approximately 10 fold
S. pneumoniae strains [2]; Sit1A-/Sit2A- double mutant, in the presence of 400 μM DIP
  sensitivity to 5 ug streptonigrin discs: completely resistant
S. pneumoniae strains [2]; Sit- strains on RPMIm plates
  zone of growth inhibition surrounding a streptonigrin disc, versus wild-type strain: smaller

B1: Sit1D: Protein encoded by S. pneumoniae gene Sit1D (SEQ ID NO. 8), putative iron-binding lipoprotein; His-tagged, expressed in E. coli (protein, listed as Salmonella pneumoniae)
chain: MKTSLKLYFTALVASFLLLLGACSTNSSTSQTETSSSAPTEVTIKSSLDEVKLSKVPEKIVTFDLGAADTIRALGFEKNIVGMPTKTVPTYLKDLVGTVKNVGSMKEPDLEAIAALEPDLIIASPRTQKFVDKFKEIAPTVLFQASKDDYWTSTKANIESLASAFGETGTQKAKEELTKLDKSIQEVATKNESSDKKALAILLNEGKMAAFGAKSRFSFLYQTLKFKPTDTKFEDSRHGQEVSFESVKEINPDILFVINRTLAIGGDNSSNDGVLENALIAETPAAKNGKIIQLTPDLWYLSGGGLESTKLMIEDIQKALK
modifications: His tag; CDS (1)..(966)
notes: His-tagged, expressed in E. coli
S. pneumoniae
  protection against S. pneumoniae challenge (survival, FIG. 7): as protective as Pdb

Source: patent publication US20090280141A1, “Streptococcal Genes” (priority 2000, published 2009)
